# Source: PMC2680961, “Homologous desensitization of signalling by the alpha (α) isoform of the human thromboxane A2 receptor: A specific role for nitric oxide signalling” (Biochimica et Biophysica Acta, 2007)
# How the values were obtained:
# [1] = target: T1, TPα^Δ336 (Homo sapiens, UniProt P21731); assay: [3H]SQ29,548 radioligand binding, Scatchard analysis, HEK.TPα^Δ336
# T1 construct: expressed in transfected cells
# T1 sequence (P21731 1-335): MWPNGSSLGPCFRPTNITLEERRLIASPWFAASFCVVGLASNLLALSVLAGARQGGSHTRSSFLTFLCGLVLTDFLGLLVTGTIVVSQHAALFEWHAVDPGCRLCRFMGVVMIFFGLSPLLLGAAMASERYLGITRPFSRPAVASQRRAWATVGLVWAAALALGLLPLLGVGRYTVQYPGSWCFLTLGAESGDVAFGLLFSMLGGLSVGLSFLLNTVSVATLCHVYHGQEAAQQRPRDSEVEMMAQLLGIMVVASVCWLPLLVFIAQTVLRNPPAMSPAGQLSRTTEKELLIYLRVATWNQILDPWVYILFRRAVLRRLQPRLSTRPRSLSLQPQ
# Procedure: Cells were harvested by centrifugation at 500×g at 4 °C for 5 min and washed three times with ice-cold Ca^2+/Mg^2+-free phosphate-buffered saline (PBS). TP radioligand binding assays were carried out at 30 °C for 30 min in 100 μl reactions in the presence of 0–40 nM [^3H] […] Protein determinations were carried out using the Bradford assay.
# Radioligand binding and Scatchard analysis data were analysed using GraphPad Prisim V4.0 programme (GraphPad Software Inc., San Diego CA, USA). Statistical analyses were carried out using the unpaired Student's t test using the Statworks Analysis Package. p-values ≤ 0.01 indicated statistically significant differences.
# [2] = target: T2, TPα^S145A (Homo sapiens, UniProt P21731, S145A); assay: Intracellular calcium mobilization, HEK.TPα^S145A cells; assay type: cell-based; conditions: for Δ[Ca2+]i, U46619-induced: HEK.TPα^S145A
# T2 construct: expressed in transfected cells
# T2 sequence (P21731 1-343 S145A): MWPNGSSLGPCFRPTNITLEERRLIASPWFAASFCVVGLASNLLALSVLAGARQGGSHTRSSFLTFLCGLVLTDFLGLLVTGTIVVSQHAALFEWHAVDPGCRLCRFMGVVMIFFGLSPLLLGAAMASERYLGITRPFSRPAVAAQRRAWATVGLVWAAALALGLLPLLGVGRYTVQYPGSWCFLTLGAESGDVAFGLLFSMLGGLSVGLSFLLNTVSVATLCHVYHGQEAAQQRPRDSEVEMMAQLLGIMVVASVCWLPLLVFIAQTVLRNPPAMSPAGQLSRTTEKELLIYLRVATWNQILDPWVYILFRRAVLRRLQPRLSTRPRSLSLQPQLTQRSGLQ
# Procedure: (§1) Measurement of intracellular calcium mobilization ([Ca^2+]i) in FURA2/AM preloaded HEK 293 cell lines (2 × 10^6 cells/dish), each transiently co-transfected with pADVA (10 μg), and pCMV:Gαq (25 μg), was carried out as previously described. To investigate the effect of GRK2/βARK1 on TP-mediated [Ca^2+]i mobilization, HEK.TPα or HEK.TPβ cells (2 × 10^6 cells/dish) were co-transfected with pADVA (10 μg), pCMV:Gαq (25 μg) along with pRK5:βARK1^495–689 (25 μg), encoding a dominant negative form of GRK2/βARK1[39]. Approximately 48 h post-transfection, cells were harvested by scraping, washed twice in ice-cold PBS and resuspended in HBSSHB (modified Ca^2+/Mg^2+-free Hank's buffered salt solution, containing 10 μM HEPES, pH 7.67, 0.1% bovine serum albumin (BSA)) buffer at 10^7 cells/ml and incubated in the dark with 5 μM FURA2/AM for 45 min at 37 °C. […] For each measurement of [Ca^2+]i mobilization, aliquots of cells were diluted to 0.825 × 10^6 cells/ml in HBSSHB, 1 mM CaCl2 and FURA2 fluorescence was recorded (2 ml aliquots of cells) at 37^ °C with gentle stirring with a Perkin Elmer-Cetus LS50-B spectrofluorometer at excitation wavelengths of 340 nm and 380 nm and emission wavelength of 510 nm, respectively.
# (§2) Cells were stimulated with the TP agonist U46619 (1 μM) and changes in [Ca^2+]i mobilization were monitored as a function of time. To assess agonist-mediated homologous desensitization, cells (0.825 × 10^6 cells/ml; 2 ml per assay) were stimulated with 1 μM U46619 (Primary stimulation) or, as a control, with the vehicle for 4 min; thereafter, cells were collected by centrifugation (900×g, 5 min); were washed twice in 2 ml HBSSHB, 1 mM CaCl2; and finally resuspended in 2 ml HBSSHB,1 mM CaCl2 and were left to recover over various time intervals (ranging from 0 to 60 min); thereafter, cells re-stimulated with 1 μM U46619 (Secondary stimulation) and changes in [Ca^2+]i mobilization were monitored as a function of time. […]
# [3] = target: T1, TPα^Δ336; assay: Intracellular calcium mobilization, HEK.TPα^Δ336 cells; assay type: cell-based; conditions: for Δ[Ca2+]i, U46619-induced: HEK.TPα^Δ336
# Procedure: as §1, §2
# [4] = tested on: TPα^S145,S331,T337A; assay: Intracellular calcium mobilization, HEK.TPα^S145,S331,T337A cells; assay type: cell-based, human; conditions: data not shown
# Procedure: as §1, with “GRK2/βARK1[39].” for “GRK2/βARK1[39]. Approximately 48 h post-transfection, cells were harvested by scraping, washed twice in ice-cold PBS and resuspended in HBSSHB (modified Ca^2+/Mg^2+-free Hank's buffered salt solution, containing 10 μM HEPES, pH 7.67, 0.1% bovine serum albumin (BSA)) buffer at 10^7 cells/ml and incubated in the dark with 5 μM FURA2/AM for 45 min at 37 °C.”
# Cells were stimulated with the TP agonist U46619 (1 μM) and changes in [Ca^2+]i mobilization were monitored as a function of time. […]
# The vehicle had no effect on U46619-mediated [Ca^2+]i mobilization. Calibration of the signal was performed in each sample by adding 0.2% Triton X-100 to obtain the maximal fluorescence ratio (Rmax) and then 1 mM EGTA to obtain the minimal fluorescence ratio (Rmin). […]
# [5] = secondary 1 μM U46619 at 15 min
Structure (SMILES),Bmax (pmol/mg protein ± S.E.M.) [1] [pmol/mg protein],"Δ[Ca2+]i, U46619-induced ([2]; primary 1 μM U46619 4 min) [nM]","Δ[Ca2+]i, U46619-induced [2, 5] [nM]",secondary U46619 [Ca2+]i response relative to primary response ([2]; TPα^S145A) [%],"Δ[Ca2+]i, U46619-induced ([3]; primary 1 μM U46619 4 min) [nM]","Δ[Ca2+]i, U46619-induced [3, 5] [nM]",secondary U46619 [Ca2+]i response relative to primary response ([3]; TPα^Δ336) [%],secondary U46619 [Ca2+]i response relative to primary response [4] [%]
"O=C(O)CCC/C=C\C[C@@H]1[C@H](CNNC(=O)Nc2ccccc2)[C@H]2CC[C@@H]1O2 [SQ29,548]",4.43 ± 0.04,,,,,,,
CCCCC[C@H](O)/C=C/[C@@H]1[C@@H](C/C=C\CCCC(=O)O)[C@H]2CO[C@@H]1C2 [U46619],,157 ± 3.8,37 ± 4.2,24,240 ± 14,50 ± 3.4,20,55
